Assay results as given in US20120270928A1, “MICRORNA COMPOUNDS AND METHODS FOR MODULATING MIR-21 ACTIVITY” (REGULUS THERAPEUTICS INC., priority 2011, published 2012).
Several values for one entry are separate records, joined by “and”; a condition that tells them apart may be missing. Equal values may be shown once. Entries after “also recorded” stand apart in the source; their conditions may differ.

Columns and labels:
[1] = test system: model of ischemia reperfusion injury (IRI); test: Unilateral ischemia reperfusion injury (IRI) model: kidney collagen 1A1 and collagen 3A1 expression; assay type: in vivo, mouse; conditions: for Collagen 3A1 (Normalized Expression) Mean / Collagen 1A1 (Normalized Expression) Mean: group mean; for Collagen 1A1 (Normalized Expression) / Collagen 3A1 (Normalized Expression): individual animals
Experimental: A model of ischemia reperfusion injury (IRI) is created in the mouse through unilateral or bilateral clamping of kidney arteries, which leads to tubule damage, inflammation, and fibrosis. Kidney dysfunction can occur either early (<5 days) or late (>7 days) in this model, with the early time points useful to test candidate agents for the treatment of acute kidney injury, and the later time points useful to model chronic fibrosis.
Anti-miR-21 compounds were tested in the unilateral IRI model. Unilateral IRI was induced for a period of 30 minutes. Treatment groups were as follows: sham IRI procedure; IRI with PBS administered subcutaneously; IRI with anti-miR-21 compound 25070 administered intraperitoneally at a dose of 20 mg/kg; the 2′-fluoro/2′-MOE modified anti-miR-21 25919 administered intraperitoneally at a dose of 20 mg/kg; and a 2′-fluoro/2′ modified mismatch anti-miR-21 (having three mismatches to the sequence of miR-21) 25319 administered intraperitoneally at a dose of 20 mg/kg. PBS or anti-miR compound was administered on days 5, 6, and 7 following IRI, and animals were sacrificed 14 days after IRI. As anti-miR compound is administered 5 days following the injury to the kidney, or later, when fibrosis has already occurred to some extent, this treatment regimen is considered a therapeutic regimen, rather than a prophylactic regimen.
Kidney tissue was collected for analysis of collagen 1A1 and collagen 3A1 expression (shown in Table 0), and collagen area fraction (shown in Table P).
A similar study was performed with the same treatment groups and additional days of treatment. In this study, treatments were administered intraperitoneally at days 5, 6, 7, 14, and 21 following the IRI procedure Animals were sacrificed on Day 27, and kidney tissue was collected for analysis of collagen 1A1 and collagen 3A1 expression, as well as collagen area fraction.
In order to assess the flexibility of administration of the anti-miR-21 compound 25070, the activity of the compound in the 14 day study above, where anti-miR-21 was administered at […] following the IRI procedure, to a different 14 day study where anti-miR-21 was administered intraperitoneally at days 3, 5, and 7 following the IRI procedure.

[2] = test system: miR-21; test: miR-21 luciferase sensor assay in Hela cells; assay type: cell-based
[3] = Table O, unilateral IRI, 20 mg/kg intraperitoneally on days 5, 6, 7, day 14, IRI-PBS mean 63.9
[4] = Table O, unilateral IRI, 20 mg/kg intraperitoneally on days 5, 6, 7, day 14, IRI-PBS mean 85.1
[5] = Table O, unilateral IRI 30 minutes, 20 mg/kg intraperitoneally on days 5, 6, 7 (therapeutic), sacrifice 14 days after IRI, 20 mg/kg
[6] = IRI mouse, 14 day study, dosing Day 5, 6, 7, relative to sham
[7] = IRI mouse, 14 day study, intraperitoneal dosing Day 3, 5, 7, relative to sham
[8] = unilateral IRI mouse, 20 mg/kg intraperitoneally on days 5, 6, 7, 14, and 21, kidney, sacrificed Day 27
[9] = unilateral IRI mouse, 20 mg/kg intraperitoneally on days 5, 6, 7, 14, and 21, kidney, sacrificed Day 27, 20 mg/kg
[10] = 4 nM oligonucleotide, Hela cells
[11] = 20 nM oligonucleotide, Hela cells
[12] = 100 nM oligonucleotide, Hela cells
[13] = 500 nM oligonucleotide, Hela cells, two experimental replicates
[14] = .16 nM oligonucleotide, Hela cells
[15] = .8 nM oligonucleotide, Hela cells

Sequence | Collagen 3A1 (Normalized Expression) Mean [1, 3] | Collagen 1A1 (Normalized Expression) Mean [1, 4] | Collagen 1A1 (Normalized Expression) [1, 5] | Collagen 3A1 (Normalized Expression) [1, 5] | Collagen 1A1 (Normalized Expression) Mean [1, 8] | Collagen 3A1 (Normalized Expression) Mean [1, 8] | Collagen 1A1 (Normalized Expression) [1, 9] | Collagen 3A1 (Normalized Expression) [1, 9] | luciferase value normalized to beta-galactosidase activity [2, 10] | luciferase value normalized to beta-galactosidase activity [2, 11] | luciferase value normalized to beta-galactosidase activity [2, 12] | luciferase value normalized to beta-galactosidase activity [2, 13] | luciferase value normalized to beta-galactosidase activity [2, 14] | luciferase value normalized to beta-galactosidase activity [2, 15] | other results
AECSATCSAGTCSTGAUSAAGCSTAE (ACATCAGTCTGATAAGCTA; modified nucleosides, phosphorothioate linkages, chemistry not fully specified) [Compound 25070] | 34.2 | 50.2 | 81.7 and 57.4 and 37.9 and 55.3 and 22.3 and 52.4 and 53.0 and 41.5 | 57.8 and 18.1 and 39.3 and 36.0 and 20.6 and 38.6 and 33.4 and 29.7 | 31.4 | 20.8 | 26.4 and 37.4 and 41.9 and 36.8 and 14.1 and 27.7 and 29.4 and 37.6 | 16.4 and 27.0 and 28.5 and 19.6 and 11.3 and 19.3 and 21.4 and 23.1 | 99 | 128 | 132 | 165 | 65 | 87 | reduction of collagen expression (collagen 1A1 or collagen 3A1, significance) ([1]; IRI, 14 day studies, either dosing schedule (days 5, 6, 7 or days 3, 5, 7)): statistically significant reduction of collagen expression with either dosing schedule; Collagen 1A1 (Normalized Expression) Mean [1, 6]: 24.5; Collagen 3A1 (Normalized Expression) Mean [1, 6]: 26.2; Collagen 1A1 (Normalized Expression) Mean [1, 7]: 27.2; Collagen 3A1 (Normalized Expression) Mean [1, 7]: 27.9; Collagen 1A1 (Normalized Expression) [1, 6]: 21.7 and 22.8 and 15.8 and 27.6 and 27.1 and 29.3 and 10.8 and 21.5 and 29.9 and 35.0 and 28.3 and 24.2; Collagen 3A1 (Normalized Expression) [1, 6]: 24.9 and 26.3 and 13.6 and 25.4 and 32.7 and 29.9 and 9.7 and 22.2 and 33.2 and 35.4 and 32.3 and 28.9; Collagen 1A1 (Normalized Expression) [1, 7]: 37.5 and 21.9 and 35.3 and 26.0 and 24.9 and 16.8 and 30.8 and 34.3 and 36.8 and 9.4 and 28.0 and 24.6; Collagen 3A1 (Normalized Expression) [1, 7]: 35.3 and 23.6 and 32.1 and 25.1 and 31.3 and 18.6 and 30.3 and 37.6 and 40.0 and 9.5 and 23.2 and 28.7; inhibition of miR-21 activity in the luciferase assay (in words) ([2]; Hela cells): inhibition of miR-21 in a dose-dependent manner; also recorded: potent inhibitor of miR-21 activity; fold change in luciferase value relative to the mock treatment ([2]; concentration of anti-miR compound 0.2 (unit not given)): 1.04 fold change; fold change in luciferase value relative to the mock treatment ([2]; concentration of anti-miR compound 0.6 (unit not given)): 1.01 fold change; fold change in luciferase value relative to the mock treatment ([2]; concentration of anti-miR compound 1.9 (unit not given)): 1.14 fold change; fold change in luciferase value relative to the mock treatment ([2]; concentration of anti-miR compound 5.6 (unit not given)): 6.22 fold change; fold change in luciferase value relative to the mock treatment ([2]; concentration of anti-miR compound 16.7 (unit not given)): 11.28 fold change; fold change in luciferase value relative to the mock treatment ([2]; concentration of anti-miR compound 50.0 (unit not given)): 11.00 fold change
UECEAFAFCFAFUFCFAFGFUFCEUEGEAFUFAFAFGFCFUEAE (antisense TCAACATCAGTCTGATAAGCTA; listed as DNA, chemistry not fully specified) [Compound 25919, reference compound] | 59.9 | 72.0 | 108.7 and 103.9 and 29.5 and 95.8 and 35.5 and 42.2 and 64.1 and 96.4 | 87.5 and 72.3 and 14.3 and 104.4 and 27.1 and 34.9 and 56.1 and 82.8 | 48.3 | 34.9 | 75.5 and 50.4 and 49.2 and 43.2 and 41.7 and 53.6 and 44.8 and 28.0 | 40.2 and 43.1 and 34.5 and 35.7 and 41.1 and 36.9 and 24.5 and 22.9 | 84 | 114 | 171 | 202 | 40 | 53 | 
